{
  "source": "paper PMC8071358",
  "about": "“Targeting of the Essential acpP, ftsZ, and rne Genes in Carbapenem-Resistant Acinetobacter baumannii by Antisense PNA Precision Antibacterials” (Biomedicines, 2021)",
  "assay_type_in_all_cases": "cell-based, Acinetobacter baumannii",
  "key": {"A. baumannii ATCC 19606": {"tested_on": "A. baumannii ATCC 19606", "experiment": "BPP-PNA MIC, broth microdilution", "conditions": "37 °C, 18 h", "method": "(§1) MIC values were determined by broth microdilution according to standard protocols with a few modifications. An overnight bacterial cell culture was diluted to approximately 5 × 10^5 CFU/mL in non-cation-adjusted Muller Hinton Broth (MHB). Then, 180 µL bacterial solutions were dispensed into a low-bind 96-well plate (Thermo-Scientific, Roskilde, Denmark) along with 20 µL of BPP-PNA compound (BPP-PNA was serially diluted 2-fold from 16 to 0.5 µM in a 96-well plate). The plate was incubated in a Tecan Genios plate reader (GMI, Minnesota, Ramsey, USA) at 37 °C for 18 h with linear shaking, OD was measured every 20 min at 595 nm. […] The minimum bactericidal concentration (MBC) values were determined by plating 10 µL samples from the wells with no visible turbidity onto Mueller–Hinton agar plates. The MBC is determined the lowest concentration of BPP-PNA that reduces the viability of the initial bacterial inoculum by ≥99.9% (3-log reduction in CFU/mL). A minimum of two independent experiments (biological replicates) of the assay were conducted, and two technical replicates were used in each experiment for each bacterium, compound, and concentration."}, "CRAB strain AC2": {"tested_on": "CRAB strain AC2", "experiment": "BPP-PNA MIC, broth microdilution", "method": "as §1"}, "CRAB strain AC44": {"tested_on": "CRAB strain AC44", "experiment": "BPP-PNA MIC, broth microdilution", "method": "as §1"}, "A. baumannii SSI1104": {"tested_on": "A. baumannii SSI1104", "experiment": "BPP-PNA MIC, broth microdilution", "method": "as §1, with “An overnight bacterial cell culture was diluted to approximately 5 × 10^5 CFU/mL in non-cation-adjusted Muller Hinton Broth (MHB).” left out"}, "CRAB strain AC46": {"tested_on": "CRAB strain AC46", "experiment": "BPP-PNA MIC, broth microdilution", "method": "as §1, with “An overnight bacterial cell culture was diluted to approximately 5 × 10^5 CFU/mL in non-cation-adjusted Muller Hinton Broth (MHB).” left out"}, "CRAB strains": {"tested_on": "CRAB strains", "experiment": "BPP-PNA MIC/MBC summarised over the panel of strains", "method": "as §1"}, "[1]": {"tested_on": "antibiotic resistant clinical isolate AC46", "experiment": "Minimum bactericidal concentration (MBC) assay", "conditions": "AC46, 24 h incubation, 1–8 μM", "method": "as §1"}, "CRAB strain AC1": {"tested_on": "CRAB strain AC1", "experiment": "BPP-PNA MIC, broth microdilution", "conditions": "MHB without cation (Oxoid); 37 °C, 18 h", "method": "as §1"}, "CRAB strain AC3": {"tested_on": "CRAB strain AC3", "experiment": "BPP-PNA MIC, broth microdilution", "conditions": "MHB without cation (Oxoid); 37 °C, 18 h", "method": "as §1"}, "CRAB strain AC4": {"tested_on": "CRAB strain AC4", "experiment": "BPP-PNA MIC, broth microdilution", "conditions": "MHB without cation (Oxoid); 37 °C, 18 h", "method": "as §1"}, "CRAB strain AC5": {"tested_on": "CRAB strain AC5", "experiment": "BPP-PNA MIC, broth microdilution", "conditions": "MHB without cation (Oxoid); 37 °C, 18 h", "method": "as §1"}, "CRAB strain AC6": {"tested_on": "CRAB strain AC6", "experiment": "BPP-PNA MIC, broth microdilution", "conditions": "MHB without cation (Oxoid); 37 °C, 18 h", "method": "as §1"}, "CRAB strain AC7": {"tested_on": "CRAB strain AC7", "experiment": "BPP-PNA MIC, broth microdilution", "conditions": "MHB without cation (Oxoid); 37 °C, 18 h", "method": "as §1"}, "CRAB strain AC8": {"tested_on": "CRAB strain AC8", "experiment": "BPP-PNA MIC, broth microdilution", "conditions": "MHB without cation (Oxoid); 37 °C, 18 h", "method": "as §1"}, "CRAB strain AC9": {"tested_on": "CRAB strain AC9", "experiment": "BPP-PNA MIC, broth microdilution", "conditions": "MHB without cation (Oxoid); 37 °C, 18 h", "method": "as §1"}, "[2]": {"conditions": "Table 4 (anti-rne), brand of medium not given, non-cation-adjusted MHB by method"}, "[3]": {"conditions": "MHB without cation (Oxoid), 37 °C, 18 h"}},
  "note": "{(KFF)3K-eg1} = H-(KFF)3K peptide (K lysine, F phenylalanine) with eg1 linker (8-amino-3,6-dioxaoctanoyl), on the PNA N terminus (5' end); {NH2} = C-terminal amide",
  "data": [
    {"substance": "H-(KFF)3K-eg1-TTTCATGGGTG-NH2 (antisense; N-terminal (KFF)3K-eg1 peptide, C-terminal amide, backbone not given here, further chemistry not given here) [PNA 5656, anti-rne peptide-PNA conjugate, match, −5 to +6]", "values": [
      {"measurement": "MIC, ATCC 19606", "setting": "A. baumannii ATCC 19606; [2]", "result": 2, "unit": "µM"},
      {"measurement": "MIC, AC2", "setting": "CRAB strain AC2; [2]", "result": 2, "unit": "µM"},
      {"measurement": "MIC, AC44", "setting": "CRAB strain AC44; [2]", "result": 2, "unit": "µM"},
      {"measurement": "MIC, SSI 1104", "setting": "A. baumannii SSI1104; [2]", "result": 2, "unit": "µM"},
      {"measurement": "MIC, AC46", "setting": "CRAB strain AC46; [2]", "result": 2, "unit": "µM"},
      {"measurement": "concentration with bactericidal activity against carbapenem-resistant A. baumannii", "setting": "CRAB strains", "result": 4, "unit": "µM"},
      {"measurement": "bactericidal concentration relative to MIC", "setting": "CRAB strains; CRAB strains", "result": "1–2 × MIC"},
      {"measurement": "MIC (complete growth inhibition) over the CRAB strains tested", "setting": "CRAB strains; several A. baumannii strains", "result": 2, "unit": "µM"},
      {"measurement": "MIC of match PNA lower than mismatch control (mismatch discrimination)", "setting": "CRAB strains; strains of Table 2 (5612 vs 5615) or Table 4 (5656 vs 5822)", "result": "four-fold"},
      {"measurement": "CFU reduction in MBC assay compared to mismatch control", "setting": "[1]", "result": "very significant CFU reduction"}
    ]},
    {"substance": "H-(KFF)3K-eg1-GAGTCCAGGAC-NH2 (all peptide nucleic acid (PNA), 5' {(KFF)3K-eg1}, 3' {NH2}) [PNA 5615, anti-ftsZ mismatch control of 5612]", "values": [
      {"measurement": "MIC, ATCC 19606", "setting": "A. baumannii ATCC 19606; MHB without cation (Oxoid)", "result": 8, "unit": "µM"},
      {"measurement": "MIC, AC1", "setting": "CRAB strain AC1", "result": 16, "unit": "µM"},
      {"measurement": "MIC, AC2", "setting": "CRAB strain AC2; [3]", "result": 16, "unit": "µM"},
      {"measurement": "MIC, AC3", "setting": "CRAB strain AC3", "result": 8, "unit": "µM"},
      {"measurement": "MIC, AC44", "setting": "CRAB strain AC44; [3]", "result": 16, "unit": "µM"},
      {"measurement": "MIC, AC4", "setting": "CRAB strain AC4", "result": 16, "unit": "µM"},
      {"measurement": "MIC, AC5", "setting": "CRAB strain AC5", "result": 16, "unit": "µM"},
      {"measurement": "MIC, AC6", "setting": "CRAB strain AC6", "result": 8, "unit": "µM"},
      {"measurement": "MIC, AC7", "setting": "CRAB strain AC7", "result": 16, "unit": "µM"},
      {"measurement": "MIC, AC8", "setting": "CRAB strain AC8", "result": 16, "unit": "µM"},
      {"measurement": "MIC, AC9", "setting": "CRAB strain AC9", "result": 16, "unit": "µM"},
      {"measurement": "MIC, SSI 1104", "setting": "A. baumannii SSI1104; [3]", "result": 16, "unit": "µM"},
      {"measurement": "MIC, AC46", "setting": "CRAB strain AC46; [3]", "result": 16, "unit": "µM"},
      {"measurement": "MIC50", "setting": "CRAB strains; over the CRAB and ATCC 19606 strains of Table 3, MHB without cation (Oxoid)", "result": 16, "unit": "µM"}
    ]}
  ]
}
